Patent US8481734B2, “Pyrazine derivatives and uses thereof, including in medical imaging and visualization applications” (Medibeacon Development LLC, priority 2008, dated 2013)

Experiments:
[1] = Comparison of clearance rates with an iothalamate reference standard (FIG. 3); type: in vivo, Spraque-Dawley rats; settings: Sprague-Dawley rats; iothalamate five rats, compound 18 six rats; FIG. 3 in milliliters per minute
Description: FIG. 3 provides a bar graph comparison of the clearance rates of an iothalamate reference standard and compound 18. Spraque-Dawley rats were again used as animal models for studying the clearance rates. Iothalamate clearance rates were measured in five rats, whereas clearance rates for compound 18 were measured in six rats. The clearance rates are expressed in FIG. 3 in terms of milliliters per minute.

[2] = Clearance curve of compound 18 in rats, monitored by fluorescence (RFUs) over time (FIG. 2); type: in vivo; settings: Sprague-Dawley rats, i.v. 1 ml of 2 mmol solution in PBS, approx. 6 μmol/kg, four rats, fluorescence (RFU)
Description: Four Sprague-Dawley rats were used to obtain the experimental results depicted in FIG. 2, with each of the four lines of the graph representing data obtained from an individual rat. The rats were injected intravenously with 1 ml of a 2 mmol solution of compound 18 in phosphate-buffered saline CBS), giving a final concentration of compound 18 in each animal of approximately 6 μmol/kg. The presence of compound 18 in each of the animals was monitored over time and measured in Relative Fluorescence Units (RFUs). The clearance curve in FIG. 2 provides RFUs over time for each of the four rats. […] The clearance rate then began to level, with complete clearance of compound 18 occurring at approximately 6000 minutes.

[3] = Excitation and emission wavelengths; type: physicochemical
Text: Compound 18, above, is a longer wavelength compound (excitation ˜500 nm, emission 600 nm orange). To achieve the red shift in both excitation and emission wavelengths, electron donation into the ring was increased by alkyl substitution on the pyrazine ring nitrogens. The synthetic strategy for these longer wavelength analogues involves functionalizing the carboxyls first through amide chemistry described above followed by reductive amination of the pyrazine amino groups. Thus the synthesis of compound 18, above, is presented below. MP-3064 was coupled with Boc-ethylenediamine using the EDC method to afford MP-3183. This material was then converted to MP-3216 by reductive amination using Boc-2-aminoacetaldehyde and sodium triacetoxyborohydride. MP-3216 was purified by flash chromatography and deprotected with TFA to afford the corresponding tetramine salt. This material was then acylated with NHS-m-dPEG12 and purified by HPLC to afford compound 18: […]

SMILES | clearance rate, compound 18 compared with iothalamate [1] | time of complete clearance [2] | excitation wavelength [3] [nm] | emission wavelength ([3]; orange) [nm]
CNC(=O)c1c(I)c(NC(C)=O)c(I)c(C(=O)O)c1I [iothalamate, reference compound] | virtually the same |  |  | 
COCCOCCOCCOCCOCCOCCOCCOCCOCCOCCOCCOCCC(=O)NCCNC(=O)c1nc(NCCNC(=O)CCOCCOCCOCCOCCOCCOCCOCCOCCOCCOCCOCCOC)c(C(=O)NCCNC(=O)CCOCCOCCOCCOCCOCCOCCOCCOCCOCCOCCOCCOC)nc1NCCNC(=O)CCOCCOCCOCCOCCOCCOCCOCCOCCOCCOCCOCCOC [compound 18, 3,6-Bis(38-oxo-2,5,8,11,14,17,20,23,26,29,32,35-dodecaoxa-39-azahentetracontan-41-ylamino)-N^2,N^5-bis(38-oxo-2,5,8,11,14,17,20,23,26,29,32,35-dodecaoxa-39-azahentetracontan-41-yl)pyrazine-2,5-dicarboxamide] | virtually the same | approximately 6000 minutes | ~500 | 600
